# Data reported in patent US20260139254A1, “INTERFERING RNA FOR INHIBITING TOP1 GENE EXPRESSION AND USE THEREOF” (JENKEM TECHNOLOGY CO., LTD. (BEIJING), priority 2022, published 2026).
# Legend:
# Type in all cases: cell-based, human
# A375 melanoma cells = experiment: Inhibition of A375 cell proliferation by siTOP1 (CCK-8); settings: A375, siRNA 50 nM, 72 h
# Method: • 1) On the day before transfection, A375 melanoma cells were seeded into a 96-well plate at 2500-3000 cells/well, the culture medium being a total volume of 200 μL of DMEM culture medium containing 7.5% FBS and 1% Penicillin-Streptomycin, and the plate was placed in an incubator with 5% CO2 at 37° C. for 24 h to allow the cells to adhere to the wall. 5 replicate wells were made for each group. • 2) On the day of transfection, the culture medium was changed to 90 μL of reduced serum culture medium without antibiotics and containing 7.5% FBS. • 3) The siRNAs were diluted with an appropriate amount of Opti-MEM culture medium; Lipofectamine™ RNAiMAX (Lipo) transfection reagent was diluted with another appropriate amount of Opti-MEM culture medium and left to stand at room temperature for 5 min; and the two dilutions were uniformly mixed and left to stand at room temperature for 5 min. • 4) 10 μL of the mixed solution described above was added to each well to obtain a final transfection volume of 100 μL, and the working concentration of the siRNA was 50 nM. • 5) The cells were cultured in the incubator with 5% CO2 at 37° C. for 72 h.
# After 72 h of transfection, 10 μL of CCK-8 solution was added to each well, and the cells were cultured in the incubator with 5% CO2 at 37° C. for another 4 h. The absorbance value at 450 nm was measured using a microplate reader. Cell viability was calculated according to the following formula: […]
# TOP1 mRNA [1] = experiment: Dose-dependence of siTOP1-1604 on TOP1 mRNA in PC-3 cells (qPCR); settings: for Relative expression level of TOP1, mean value: 24 h, siNC = 100.00
# Method: A transfection system was prepared as follows on the day of transfection: siTOP1-1604 was diluted with an appropriate amount of Opti-MEM culture medium; Lipofectamine™ RNAiMAX (Lipo) transfection reagent was diluted with another appropriate amount of Opti-MEM culture medium and left to stand at room temperature for 5 min; and the two dilutions were uniformly mixed, left to stand at room temperature for 5 min, and then added to 24-well cell culture plates at 50 μL/well. PC-3 human prostate cancer cells were added to one of the 24-well cell culture plates at 4×10^5 cells/well, the culture medium being 450 μL of F12K containing 10% FBS; HCT116 human colon cancer cells were added to the other of the 24-well cell culture plates at 3.5×10^5 cells/well, the culture medium being 450 μL of IMDM containing 10% FBS. The cells were uniformly mixed with the siRNA. The final transfection volume was 500 μL, and the working concentrations of the siRNA were 10, 1.67, 0.27, 0.046, 0.0077, 0.0013, and 0.00021 nM. The control groups were Blank (Opti-MEM at the equal volume), Lipofectamine™ RNAiMAX (Lipo) transfection reagent, as well as 10 nM of siNC.
# After 24 h of transfection, the cells were collected. The total cellular RNA was extracted according to the method in Example 2, and the level of TOP1 mRNA was detected. […] Nonlinear fitting was performed on the qPCR results using Graphpad software and IC50 of siTOP1 was calculated.
# TOP1 mRNA [2] = experiment: Inhibitory effects of modified sequences of siTOP1-1604 on TOP1 mRNA in PC-3 cells; settings: PC-3, siRNA 50 nM, 48 h after transfection, Blank = 100.00
# Method: PC-3 human prostate cancer cells were transfected with the modified siTOP1 according to the method in Example 2 at a siRNA working concentration of 50 nM. TOP1 mRNA levels were detected 48 h after the transfection. The control groups were Blank (Opti-MEM at the equal volume), Lipofectamine™ RNAiMAX (Lipo) transfection reagent, and the positive control unmodified siTOP-1604.
substance,measurement,setting,value
"siTOP1-1604: siRNA targeting TOP1; target SEQ ID NO: 9, sense strand SEQ ID NO: 24, antisense strand SEQ ID NO: 39 (sense GUGUGGACAAGAUCCGGAAUU; antisense UUCCGGAUCUUGUCCACACUU; described as unmodified parent siRNA, further chemistry not given here)","Cell viability (%), mean value",A375 melanoma cells,41.65%
same,Inhibition of A375 cell proliferation compared to Blank,A375 melanoma cells,about 58%
same,"Relative expression level of TOP1, mean value","TOP1 mRNA [1]; PC-3, 0.00021 nM",125.48
same,"Relative expression level of TOP1, mean value","TOP1 mRNA [1]; PC-3, 0.0013 nM",96.21
same,"Relative expression level of TOP1, mean value","TOP1 mRNA [1]; PC-3, 0.0077 nM",122.71
same,"Relative expression level of TOP1, mean value","TOP1 mRNA [1]; PC-3, 0.046 nM",47.64
same,"Relative expression level of TOP1, mean value","TOP1 mRNA [1]; PC-3, 0.27 nM",24.94
same,"Relative expression level of TOP1, mean value","TOP1 mRNA [1]; PC-3, 1.67 nM",21.05
same,"Relative expression level of TOP1, mean value","TOP1 mRNA [1]; PC-3, 10 nM",19.66
same,IC50,"TOP1 mRNA [1]; PC-3, 24 h, relative to siNC, nonlinear fit of qPCR results",0.075 nM
same,"Relative expression level, mean value",TOP1 mRNA [2],4.03
